Bridge positions count the residues as written; N and C are the ends. Peptide text beside a SMILES is read from it.
Key:
[1] = tested on: trypsin; settings: 20-fold less (in mass) trypsin, room temperature, 1 h, read-out mass spectrometry
[2] = tested on: Fusarium virguliforme; experiment: In vitro antifungal assay, resazurin cell viability (MIC); format: cell-based; settings: resazurin assay in SFM, ~10^5 spores/mL
Method: (§1) B. cinerea strain T4 was cultured in V8 medium for 3 weeks at 25°C. Fungal spores were collected by flooding the fungal growth plates with water and scraped using a sterile spreader. The spore suspension was filtered through two layers of Miracloth, followed by centrifugation at 12,000 g for 2 minutes (min) and subsequently washed twice with sterile water. Lastly, fungal spores were resuspended in Synthetic Fungal Media (SFM). The spore suspension was adjusted to the desired spore density of about 10^5 spores/mL using a hemocytometer. Fusarium virguliforme (F. virguliforme) was grown and maintained regularly in potato dextrose agar (PDA) (Difco Laboratories) medium. Two weeks old F. virguliforme plates were used to collect spores as described above for B. cinerea followed by centrifugation and washing steps. Spores were counted using a hemocytometer and adjusted to the final concentration of 10^5 spores/mL in 2X SFM media. Sclerotinia sclerotiorum obtained from the field of pennycress in Illinois was grown on PDA medium at room temperature.
(§2) The antifungal activity of NCR13 against fungal pathogens was determined using the resazurin cell viability assay, as described previously. […] The in vitro antifungal activity of NCR13_PFVs against S. sclerotiorum was determined using a 24-well plate assay as previously described. […]

[3] = tested on: Sclerotinia sclerotiorum; experiment: In vitro antifungal assay, 24-well plate with mycelial plugs (MIC); format: cell-based; settings: mycelial plugs in 250 μL SFM
Method: as §1, §2

[4] = tested on: B. cinerea; format: in vivo, Botrytis cinerea on tomato (Solanum lycopersicum); settings: 3 μM peptide sprayed on pre-inoculated four-week-old tomato plants; 5 leaves per plant, 4 plants
Method: To test the curative antifungal activity of peptides against B. cinerea, 4-week-old pepper and tomato plants were used. Plants were first sprayed with 1 mL of B. cinerea spores (about 5 × 10^4) suspended in SFM. After 8 h of B. cinerea challenge, 2 mL of NCR13_PFV1 or NCR13_PFV2 (3.0 and 1.5 μM) were sprayed per plant. Control plants were sprayed with 2 mL of water. All plants were placed in a high humid environment for 72 h. Plants were imaged at 72 h after infection in white light and high-resolution fluorescence images were taken using CropReporter (PhenoVation). The quantification of plant health was carried out using the calculated Fv/Fm (maximum quantum yield of photosystem II) images of CropReporter showing the efficiency of photosynthesis in false colors.
For the curative assay using pepper and tomato plants, pictures of whole plants and detached leaves were taken as described above. […] Four plants were used per treatment and for each plant the disease was assessed per leaf. Besides disease severity (DS), the inhibition of disease by treatment was also evaluated. […]

[5] = tested on: B. cinerea; format: cell-based, Botrytis cinerea; settings: B. cinerea
Method: as §1
The antifungal activity of NCR13 against fungal pathogens was determined using the resazurin cell viability assay, as described previously. Briefly, 45 μL of each peptide dilution (0, 0.09, 0.1875, 0.375, 0.75, 1.5, 3, and 6 μM) was added to each well of the microtiter plate containing 45 μL (~10^5 spores/mL) of spore suspension. Three biological replicates were used for each treatment and the experiments were repeated three times. Resazurin at 0.1% (w/v) was added to each well after incubation for 48 h. Images were taken at ~24 h. The Minimum Inhibitory Concentration (MIC) for each peptide denotes the lowest concentration at which the peptide halts the growth of fungus evident through a lack of color change from blue to […]. The in vitro antifungal activity of NCR13_PFVs against S. sclerotiorum was determined using a 24-well plate assay as previously described. Mycelial plugs (1 mm in diameter) cut from the growing edge of the two day-old actively growing colony were transferred from PDA media to a series of wells containing 250 μL of SFM.

CC[C@H](C)[C@@H]1NC(=O)[C@@H]2CSSC[C@H](NC(=O)[C@@H]3CCCN3C(=O)[C@H](CCCCN)NC(=O)[C@@H](NC(=O)[C@H](C)N)[C@@H](C)O)C(=O)N[C@@H](CCC(N)=O)C(=O)N[C@@H](CO)C(=O)N[C@@H](CC(=O)O)C(=O)N[C@@H](CCCCN)C(=O)N[C@@H](CC(=O)O)C(=O)N[C@H]3CSSC[C@H](NC(=O)[C@H](Cc4ccccc4)NC(=O)CNC(=O)[C@H](CC(N)=O)NC1=O)C(=O)N[C@@H](CCCCN)C(=O)N[C@H](C(=O)N[C@H](C(=O)N[C@@H](CCCNC(=N)N)C(=O)O)C(C)C)CSSC[C@H](NC(=O)[C@H](C)NC(=O)[C@H](Cc1ccccc1)NC(=O)[C@H](CCCCN)NC(=O)[C@H](CCCCN)NC3=O)C(=O)N[C@@H](CCCNC(=N)N)C(=O)N[C@@H](CCCCN)C(=O)N1CCC[C@H]1C(=O)N[C@@H](CCCCN)C(=O)N[C@@H](C(C)C)C(=O)N1CCC[C@H]1C(=O)N[C@@H](CCCCN)C(=O)N2 [NCR13_PFV1] (H-ATKPCQSDKDCKKFACRKPKVPKCINGFCKCVR-OH; disulfide 5-24, 11-29, 16-31)
digestion by trypsin [1]: could not be digested by trypsin | Minimal Inhibitory Concentration (MIC) [2]: 0.09 µM | Minimal Inhibitory Concentration (MIC) [3]: 6.0 µM | inhibition of gray mold disease, tomato [4]: 90% | Minimal Inhibitory Concentration (MIC) ([5]; resazurin assay in SFM, ~10^5 spores/mL, resazurin added after 48 h, three biological replicates): 0.09 µM | MIC in SFM+100 mM NaCl ([5]; synthetic fungal medium plus 100 mM NaCl): > 12 µM

— paper PMC11637438, “Chickpea NCR13 disulfide cross-linking variants exhibit profound differences in antifungal activity and modes of action” (PLOS Pathogens, 2024)
